The record followed here is patent US9527828B2, “Method for expanding hematopoietic stem cells using heterocyclic compound” (Nissan Chemical Industries, Ltd., priority 2007, dated 2016).

The structures appear in SMILES notation.

The assay relates to CD34^+CD38^− cells. The experiment in a line: Expansion of CD34+CD38− cells from human cord blood-derived CD34+ cells (Example 2). It counts as cell-based. The following applies: Homo sapiens, 168 h, 1 μg/mL compound, 50 ng/mL SCF, StemSpan SFEM, 7 days; based on number of CD34+CD38− cells in the absence of compound; read-out: Expansion efficiency. The procedure: The human cord blood-derived CD34^+ cells collected or purchased in Example 1 were plated on a 24-well plate (TPP) (10000 cells/1/mL/well). As the culture medium, StemSpan SFEM (Stemcell Technologies) containing 50 ng/mL SCF (Peprotech) was used, and Compounds No. 1 to 133 dissolved in dimethyl sulfoxide were added in an amount of 0.1% (v/v) to a final concentration of 1 μg/mL.
After the cells were incubated in liquid culture at 37° C. for 7 days in a CO2 incubator (5% CO2), the number of viable cells was counted by trypan blue assay. The number of CD34^+CD38^− cells was calculated as follows. After the incubation, the cells in the liquid culture was stained with a CD34 antibody (APC, Becton, Dickinson and Company) and a CD38 antibody (PE, Becton, Dickinson and Company), then washed with PBS(−) containing 2% (v/v) FBS and stained with propidium iodide (Sigma-Aldrich Japan) added to a final concentration of 5 μg/mL. The stained cells were analyzed with a flow cytometer JSAN (Bay Bioscience) to determined the proportion of CD34^+CD38^− cells, which was multiplied by the number of viable cells to calculate the number of CD34^+CD38^− cells.
The expansion efficiencies in the presence of 1 μg/mL of compounds based on the number of CD34^+CD38^− cells in the absence of them are shown in Tables 2 and 3 on a scale of A for expansion efficiencies of 10 or greater, B for expansion efficiencies of at least 5 and less than 10, and C for expansion efficiencies of at least 3 and less than 5.
Regarding `CNC(=O)c1ccc(CNC(=O)c2ccc(C(=O)N/N=C(\C)c3csc(-c4ccc(Cl)c(Cl)c4)c3O)s2)cc1` [compound 106], the fold induction at 1 µg/mL is no less than 10. With `C/C(=N\NC(=O)c1ccc(C(=O)NCc2cc[n+]([O-])cc2)s1)c1csc(-c2ccc(C(F)(F)F)cc2)c1O` [compound 57], the fold induction at 1 µg/mL was 5 to 10. As for `C/C(=N\NC(=O)c1ccc(C(=O)NCCO)s1)c1csc(-c2ccc(Cl)c(Cl)c2)c1O` [compound 65], the fold induction at 1 µg/mL fell in the range of 5 to 10. Regarding `C/C(=N\NC(=O)c1ccc(C(=O)NCc2ccc(C(N)=O)cc2)s1)c1csc(-c2ccc(OC(F)(F)F)cc2)c1O` [compound 90], the fold induction at 1 µg/mL is no less than 10. Take `CCCNC(=O)c1ccc(C(=O)N/N=C(\C)c2csc(-c3ccc(Cl)cc3)c2O)s1` [compound 31]: the fold induction at 1 µg/mL is no less than 10. With `C/C(=N\NC(=O)c1ccc(C(=O)NCc2ccccn2)s1)c1csc(-c2ccc(Cl)cc2)c1O` [compound 32], the fold induction at 1 µg/mL fell in the range of 5 to 10. For `C/C(=N\NC(=O)c1ccc(C(=O)NCc2ccccn2)s1)c1csc(-c2cccc(Cl)c2)c1O` [compound 75], the fold induction at 1 µg/mL was 3 to 5. Consider `C/C(=N\NC(=O)c1ccc(C(=O)NCc2cccnn2)s1)c1csc(-c2ccc(Cl)c(Cl)c2)c1O` [compound 44], for which the fold induction at 1 µg/mL was in the range of 5 to 10. To `CNC(=O)c1ccc(CNC(=O)c2ccc(C(=O)N/N=C(\C)c3csc(-c4ccc(OC(F)(F)F)cc4)c3O)s2)cc1` [compound 111] belongs no less than 10; to `C/C(=N\NC(=O)c1ccc(C(=O)NCc2cc(C)n(C)n2)s1)c1csc(-c2ccc(OC(F)(F)F)cc2)c1O` [compound 128], no less than 10. In the case of `C/C(=N\NC(=O)c1ccc(C(=O)NCc2ccnn2C)s1)c1csc(-c2ccc(Cl)cc2)c1O` [compound 58], the fold induction at 1 µg/mL is 5 to 10. For `COc1ccc(-c2scc(/C(C)=N/NC(=O)c3ccc(C(=O)NC(C)c4ccc(C(N)=O)cc4)s3)c2O)cc1` (stereo not drawn) [compound 119], the fold induction at 1 µg/mL is no less than 10. With `C/C(=N\NC(=O)c1ccc(C(=O)NCc2cnc(C)cn2)s1)c1csc(-c2ccc(Cl)c(Cl)c2)c1O` [compound 39], the fold induction at 1 µg/mL is 5 to 10. Take `C/C(=N\NC(=O)c1ccc(C(=O)NCCCCO)s1)c1csc(-c2ccc(Cl)c(Cl)c2)c1O` [compound 73]: the fold induction at 1 µg/mL was in the range of 5 to 10.

In the case of `C/C(=N\NC(=O)c1ccc(C(=O)NCc2cn(C)cn2)s1)c1csc(-c2ccc(Cl)cc2)c1O` [compound 132], the fold induction at 1 µg/mL is no less than 10. For `CCNC(=O)c1ccc(C(=O)N/N=C(\C)c2csc(-c3ccc(Cl)c(Cl)c3)c2O)s1` [compound 24], the fold induction at 1 µg/mL was 5 to 10. For `C/C(=N\NC(=O)c1ccc(C(=O)NCc2ccnn2C)s1)c1csc(-c2ccc(C(F)(F)F)cc2)c1O` [compound 45] the value was 5 to 10; for `C/C(=N\NC(=O)c1ccc(C(=O)NC(C)c2ccc(C(N)=O)cc2)s1)c1csc(-c2ccc(C(F)(F)F)cc2)c1O` (stereo not drawn) [compound 116], no less than 10; for `C/C(=N\NC(=O)c1ccc(C(=O)NC(C)c2ccc(C(N)=O)cc2)s1)c1csc(-c2ccc(C(C)(C)C)cc2)c1O` (stereo not drawn) [compound 114], no less than 10.

On to `C/C(=N\NC(=O)c1ccc(C(=O)NCc2ccc(C(N)=O)cc2)s1)c1csc(-c2ccc(Cl)cc2)c1O` [compound 89], for which the fold induction at 1 µg/mL is no less than 10. In the case of `C/C(=N\NC(=O)c1ccc(C(=O)NCc2cccs2)s1)c1csc(-c2ccc(Cl)c(Cl)c2)c1O` [compound 25], the fold induction at 1 µg/mL is 5 to 10. To `C/C(=N\NC(=O)c1ccc(C(=O)NCc2cccc(C(N)=O)c2)s1)c1csc(-c2ccc(C(F)(F)F)cc2)c1O` [compound 95] belongs no less than 10; to `COc1ccc(-c2scc(/C(C)=N/NC(=O)c3ccc(C(=O)NCc4cccc(C(N)=O)c4)s3)c2O)cc1` [compound 98], no less than 10; to `CCCN(C)C(=O)c1ccc(C(=O)N/N=C(\C)c2csc(-c3ccc(Cl)cc3)c2O)s1` [compound 76], 3 to 5.
